Laboratory results reported in ChEMBL document CHEMBL1201862, “PubChem BioAssay data set” (2004).
Activity calls are given as the source filed them.

Experiments:
[1] = target: Melanocortin receptor 4 (Homo sapiens, UniProt P32245); experiment: inhibitors of MC4R cAMP signaling – cell-based, TR-FRET, biased antagonists, dose response (AID 602298); format: functional;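 note: antagonist potency against agonist-stimulated cAMP production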
[2] = reduction of Shn3 3'UTR-driven luciferase in osteoblasts – cell-based, Clone20 osteoblasts, firefly luciferase, cherry-picked, dose response (AID 624132); format: functional;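 note: firefly luciferase luminescence from reporter carrying the Shn3 3'UTR in osteoblasts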
[3] = loss of viability in HepG2 cells – cell-based, CellTiter-Glo, cherry-picked, cytotoxicity control for Shn3 inhibitor project, dose response (AID 624134); format: functional
[4] = non-specific 3'UTR reporter inhibition in Clone20-Shn3RL – cell-based, Renilla luciferase, cherry-picked, counter-screen for Shn3 inhibitor project, dose response (AID 624133); format: functional
[5] = cAMP pathway inhibition in counterscreen cell line – TR-FRET cAMP detection, counter-screen for MC4R biased antagonist project, dose response (AID 602305); format: functional, cell-based;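 note: U2OS cells stimulated with forskolin near its EC80 as the cAMP inducer; potency is for inhibition of forskolin-stimulated cAMP signaling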
[6] = target: Paired box protein Pax-8 (Homo sapiens, UniProt Q06710); experiment: PAX8 transcriptional activity inhibition in RMG-I – RMG-I cells, luciferase, cherry-pick, dose response (AID 687027); format: functional, cell-based;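 note: luciferase reporter driven by Pax8 target thyroperoxidase promoter measured by SteadyGlo luminescence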
[7] = viability loss in A549 lung cells – cell-based, 24 h, CellTiter-Glo luminescence, cherry-picks, cytotoxicity control, dose response (AID 1053115); format: functional; settings: A549, 24 h
[8] = lung carcinoma cell viability loss – CellTiter-Glo luminescence, dry powder, set 17, dose response (AID 1117284); format: functional, cell-based; settings: A549
[9] = target: T1, Mannose-6-phosphate isomerase (Homo sapiens, UniProt P34949); experiment: MPI enzyme activity inhibition – biochemical, fluorescence intensity, coupled assay, primary screen (AID 1209)
T1 sequence (P34949 whole entry): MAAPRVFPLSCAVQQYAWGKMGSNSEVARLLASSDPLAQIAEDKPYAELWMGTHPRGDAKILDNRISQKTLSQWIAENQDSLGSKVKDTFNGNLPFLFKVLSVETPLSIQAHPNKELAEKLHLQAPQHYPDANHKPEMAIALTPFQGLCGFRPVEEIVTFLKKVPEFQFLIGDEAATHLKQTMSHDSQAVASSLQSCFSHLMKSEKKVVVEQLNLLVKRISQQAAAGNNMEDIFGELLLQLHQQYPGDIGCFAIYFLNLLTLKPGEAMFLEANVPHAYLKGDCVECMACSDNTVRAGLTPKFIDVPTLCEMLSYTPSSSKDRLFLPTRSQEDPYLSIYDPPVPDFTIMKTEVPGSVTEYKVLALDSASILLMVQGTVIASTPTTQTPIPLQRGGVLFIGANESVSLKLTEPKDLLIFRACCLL

[10] = Luminescence Cell-Based Dose Confirmation HTS to Identify Activators of 5'UTR Stem-Loop Driven Alpha-Synuclein mRNA Translation in H4 Neuroglioblastoma Cells. [Related pubchem assays: 1829 (Project Summary), 1814 (Primary HTS)]; format: functional
[11] = Luminescence Cell-Based Dose Response HTS to Identify Activators of Luciferase Translation or Activity in H4 […] Cells. [Related pubchem assays: 1829 (Project Summary), 1814 (Primary HTS)]; format: functional
[12] = system: H4; experiment: Luminescence Cell-Based Dose Response HTS to Identify Activators of 5'UTR Stem-Loop Driven Prion Protein mRNA Translation in H4 Neuroglioblastoma Cells. [Related pubchem assays: 1829 (Project Summary), 1814 (Primary HTS)]; format: functional; settings: Homo sapiens
[13] = target: Heat shock protein HSP 90-alpha (Homo sapiens, UniProt P07900); experiment: Luminescence-based dose response biochemical high throughput screening assay for inhibitors of the Heat Shock Protein 90 (HSP90). [Related pubchem assays: 1831 (Summary AID.), 1846 (Confirmation screen.), 1789 (Primary screen.)]
[14] = target: Voltage-gated inwardly rectifying potassium channel KCNH2 (Homo sapiens, UniProt Q12809); experiment: concentration-dependent hERG rescue from blockers – cell-based, thallium flux, dose response (AID 2121); format: ADME
[15] = M. tuberculosis growth inhibition, HTS (AID 449762); format: functional
[16] = target: Luciferin 4-monooxygenase (Photinus pyralis, UniProt P08659); experiment: inhibition of purified Photinus pyralis luciferase – biochemical, luminescence, dose response (AID 1891)
[17] = Luminescence Cell-Based Dose Confirmation HTS to Identify Inhibitors of Platelet Dense Granule Release. [Related pubchem assays: 1663 (Primary HTS), 1678 (Summary of Project)]; format: functional
[18] = Fluorescence Cell-Based Dose Response to Identify Inhibitors of Thrombin Receptor-Activating Peptide SFLLRN-Mediated P-Selectin Induction on Platelets. [Related pubchem assays: 1663 (Primary HTS), 1889 (retest at dose ), 1891 (counterscreen), 1678 (Project Summary)]; format: functional
[19] = target: Galanin receptor type 2 (Homo sapiens, UniProt O43603); experiment: Dose Response cell-based high-throughput screening assay to identify antagonists of galanin receptor 2 (GALR2). [Related pubchem assays: 828, 866 ]; format: functional
[20] = target: Bifunctional protein GlmU (Mycobacterium tuberculosis, UniProt P9WMN3); experiment: Inhibitors of Mycobacterial Glucosamine-1-phosphate acetyl transferase (GlmU). Secondary screen.; design: species or system Mycobacterium tuberculosis H37Rv
[21] = viability of uninfected HEp-2 cells – cell-based, HTS, cytotoxicity control for RSV inhibitor project, dose response (AID 2410); format: functional; settings: human respiratory syncytial virus
[22] = luciferase reporter signal suppression in cells – H4 neuroglioma cells, luminescence, dose response (AID 1990); format: functional, cell-based
[23] = Luminescence Cell-Based Dose Response HTS to Identify Inhibitors of 5'UTR Stem-Loop Driven Prion Protein mRNA Translation in H4 Neuroglioblastoma Cells. [Related pubchem assays: 1827 (Project Summary), 1813 (Primary HTS)]; format: functional
[24] = system: Vero; experiment: mammalian cell viability reduction – secondary assay, cytotoxicity control for West Nile virus antiviral project, dose response (AID 1650); format: functional; settings: Chlorocebus sabaeus
[25] = alpha-synuclein stem-loop luciferase translation blockers – H4 neuroglioma cells, luminescence, confirmation (AID 1988); format: functional, cell-based
[26] = target: Sphingosine 1-phosphate receptor 1 (Homo sapiens, UniProt P21453); experiment: Cell-membrane dose response assay to identify antagonists of the Sphingosine 1-Phosphate receptor 1 (S1P1).; format: functional
[27] = target: 5-hydroxytryptamine receptor 1A (Homo sapiens, UniProt P08908); format: functional
[28] = target: T2, Protein skinhead-1 (Caenorhabditis elegans, UniProt P34707); format: functional
T2 sequence (P34707 whole entry): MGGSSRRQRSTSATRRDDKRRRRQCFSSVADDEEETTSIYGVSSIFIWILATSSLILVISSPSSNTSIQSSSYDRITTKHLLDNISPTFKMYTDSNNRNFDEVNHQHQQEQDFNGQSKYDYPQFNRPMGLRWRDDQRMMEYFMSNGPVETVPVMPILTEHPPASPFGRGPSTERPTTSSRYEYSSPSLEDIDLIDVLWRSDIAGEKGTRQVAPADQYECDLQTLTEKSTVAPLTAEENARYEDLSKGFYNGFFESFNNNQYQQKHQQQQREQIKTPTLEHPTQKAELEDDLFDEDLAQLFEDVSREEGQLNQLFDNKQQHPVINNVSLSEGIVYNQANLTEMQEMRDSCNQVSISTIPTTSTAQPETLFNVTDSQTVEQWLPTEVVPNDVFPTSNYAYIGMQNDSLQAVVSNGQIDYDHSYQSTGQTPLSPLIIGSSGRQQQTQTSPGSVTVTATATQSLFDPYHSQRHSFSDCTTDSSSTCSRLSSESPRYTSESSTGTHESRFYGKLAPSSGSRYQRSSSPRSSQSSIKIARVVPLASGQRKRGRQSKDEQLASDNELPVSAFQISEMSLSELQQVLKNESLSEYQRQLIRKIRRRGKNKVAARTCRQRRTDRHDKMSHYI

[29] = target: T3, Neuropeptide Y receptor type 2 (Homo sapiens, UniProt P49146); experiment: IC50 for human NPY-Y2 blockade – cell-based, counter-screen for NPY-Y1 antagonist project, dose response (AID 1278); format: functional
T3 sequence (P49146 whole entry): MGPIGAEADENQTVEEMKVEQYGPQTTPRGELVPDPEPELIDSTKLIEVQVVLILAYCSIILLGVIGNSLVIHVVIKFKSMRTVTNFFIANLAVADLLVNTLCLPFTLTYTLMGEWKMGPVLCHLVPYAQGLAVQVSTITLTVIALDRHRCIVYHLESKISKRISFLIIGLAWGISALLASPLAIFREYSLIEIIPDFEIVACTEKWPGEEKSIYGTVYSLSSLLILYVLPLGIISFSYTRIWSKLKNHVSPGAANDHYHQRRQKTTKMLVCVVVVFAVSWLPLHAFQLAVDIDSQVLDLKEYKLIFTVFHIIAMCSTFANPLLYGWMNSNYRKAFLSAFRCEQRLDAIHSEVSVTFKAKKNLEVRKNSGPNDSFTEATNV

[30] = target: T4, Neuropeptide Y receptor type 1 (Homo sapiens, UniProt P25929); experiment: IC50 of human NPY-Y1 blockers – cell-based, dose response (AID 1277); format: functional
T4 sequence (P25929 whole entry): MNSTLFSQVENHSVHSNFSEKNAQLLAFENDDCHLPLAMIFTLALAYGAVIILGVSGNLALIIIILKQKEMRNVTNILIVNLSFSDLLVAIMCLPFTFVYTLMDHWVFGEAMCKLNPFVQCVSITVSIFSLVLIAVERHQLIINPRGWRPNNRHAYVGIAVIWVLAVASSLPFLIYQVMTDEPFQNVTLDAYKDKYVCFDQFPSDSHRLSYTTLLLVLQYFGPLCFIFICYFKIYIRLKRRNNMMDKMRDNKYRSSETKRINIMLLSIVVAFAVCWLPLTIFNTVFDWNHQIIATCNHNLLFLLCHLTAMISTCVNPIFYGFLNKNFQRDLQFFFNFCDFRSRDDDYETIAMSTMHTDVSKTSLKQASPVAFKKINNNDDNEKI

Sequence of Bifunctional protein GlmU (P9WMN3 whole entry): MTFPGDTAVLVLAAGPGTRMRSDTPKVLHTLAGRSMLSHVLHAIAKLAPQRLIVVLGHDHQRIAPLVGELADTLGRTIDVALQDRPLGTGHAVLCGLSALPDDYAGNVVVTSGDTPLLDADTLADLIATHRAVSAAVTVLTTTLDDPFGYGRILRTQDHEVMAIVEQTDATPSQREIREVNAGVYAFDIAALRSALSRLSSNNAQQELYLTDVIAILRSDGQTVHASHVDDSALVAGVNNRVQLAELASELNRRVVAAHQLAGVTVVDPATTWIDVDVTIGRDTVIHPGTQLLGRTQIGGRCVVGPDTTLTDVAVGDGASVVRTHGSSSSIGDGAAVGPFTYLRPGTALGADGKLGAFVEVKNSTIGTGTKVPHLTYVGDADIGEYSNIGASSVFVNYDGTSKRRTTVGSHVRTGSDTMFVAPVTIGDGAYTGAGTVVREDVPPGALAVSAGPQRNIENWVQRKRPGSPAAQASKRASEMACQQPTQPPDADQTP
Sequence of Melanocortin receptor 4 (P32245 whole entry): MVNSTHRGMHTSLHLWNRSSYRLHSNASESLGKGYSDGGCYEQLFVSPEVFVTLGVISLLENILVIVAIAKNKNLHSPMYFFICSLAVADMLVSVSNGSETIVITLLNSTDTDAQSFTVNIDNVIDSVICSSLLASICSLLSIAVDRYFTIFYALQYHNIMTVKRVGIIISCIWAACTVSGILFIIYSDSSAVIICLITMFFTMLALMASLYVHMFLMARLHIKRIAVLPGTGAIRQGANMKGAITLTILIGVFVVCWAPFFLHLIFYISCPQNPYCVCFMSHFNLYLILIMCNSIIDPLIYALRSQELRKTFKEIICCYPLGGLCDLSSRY
Sequence of 5-hydroxytryptamine receptor 1A (P08908 whole entry): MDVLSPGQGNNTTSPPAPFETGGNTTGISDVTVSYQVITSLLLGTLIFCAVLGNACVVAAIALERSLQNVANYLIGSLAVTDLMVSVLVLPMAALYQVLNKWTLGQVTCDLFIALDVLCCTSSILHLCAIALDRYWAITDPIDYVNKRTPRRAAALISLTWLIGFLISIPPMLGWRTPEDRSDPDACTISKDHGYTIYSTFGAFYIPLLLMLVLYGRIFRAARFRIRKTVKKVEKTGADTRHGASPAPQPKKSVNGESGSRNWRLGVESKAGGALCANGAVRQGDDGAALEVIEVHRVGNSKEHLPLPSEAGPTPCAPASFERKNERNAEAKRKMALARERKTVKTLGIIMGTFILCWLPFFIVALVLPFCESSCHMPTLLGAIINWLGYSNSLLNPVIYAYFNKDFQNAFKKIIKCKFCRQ
Sequence of Sphingosine 1-phosphate receptor 1 (P21453 whole entry): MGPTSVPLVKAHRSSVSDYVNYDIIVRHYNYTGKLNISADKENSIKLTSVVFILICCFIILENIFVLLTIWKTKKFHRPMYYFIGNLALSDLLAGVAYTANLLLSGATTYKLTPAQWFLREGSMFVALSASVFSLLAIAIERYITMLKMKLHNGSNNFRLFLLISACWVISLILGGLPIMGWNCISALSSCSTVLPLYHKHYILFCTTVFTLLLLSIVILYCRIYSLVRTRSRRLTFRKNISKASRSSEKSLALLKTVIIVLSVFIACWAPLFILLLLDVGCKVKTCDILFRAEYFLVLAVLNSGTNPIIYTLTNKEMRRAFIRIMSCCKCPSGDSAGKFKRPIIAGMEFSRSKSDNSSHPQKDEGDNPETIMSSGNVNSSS
Sequence of Luciferin 4-monooxygenase (P08659 whole entry): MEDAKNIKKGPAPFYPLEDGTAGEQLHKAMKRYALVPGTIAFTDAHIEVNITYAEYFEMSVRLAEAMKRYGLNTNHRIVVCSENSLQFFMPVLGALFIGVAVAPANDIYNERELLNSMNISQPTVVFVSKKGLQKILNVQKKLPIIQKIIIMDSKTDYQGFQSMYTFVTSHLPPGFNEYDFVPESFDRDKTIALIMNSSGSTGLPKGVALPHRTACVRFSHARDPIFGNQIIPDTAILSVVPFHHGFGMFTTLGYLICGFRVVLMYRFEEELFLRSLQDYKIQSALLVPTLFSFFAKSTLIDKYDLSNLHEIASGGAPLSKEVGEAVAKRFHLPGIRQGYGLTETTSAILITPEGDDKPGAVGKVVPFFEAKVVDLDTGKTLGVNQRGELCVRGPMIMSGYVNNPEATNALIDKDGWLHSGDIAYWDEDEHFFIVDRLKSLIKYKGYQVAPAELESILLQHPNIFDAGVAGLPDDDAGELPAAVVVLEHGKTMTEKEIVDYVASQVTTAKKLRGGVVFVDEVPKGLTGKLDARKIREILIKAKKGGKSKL
Sequence of Voltage-gated inwardly rectifying potassium channel KCNH2 (Q12809 whole entry): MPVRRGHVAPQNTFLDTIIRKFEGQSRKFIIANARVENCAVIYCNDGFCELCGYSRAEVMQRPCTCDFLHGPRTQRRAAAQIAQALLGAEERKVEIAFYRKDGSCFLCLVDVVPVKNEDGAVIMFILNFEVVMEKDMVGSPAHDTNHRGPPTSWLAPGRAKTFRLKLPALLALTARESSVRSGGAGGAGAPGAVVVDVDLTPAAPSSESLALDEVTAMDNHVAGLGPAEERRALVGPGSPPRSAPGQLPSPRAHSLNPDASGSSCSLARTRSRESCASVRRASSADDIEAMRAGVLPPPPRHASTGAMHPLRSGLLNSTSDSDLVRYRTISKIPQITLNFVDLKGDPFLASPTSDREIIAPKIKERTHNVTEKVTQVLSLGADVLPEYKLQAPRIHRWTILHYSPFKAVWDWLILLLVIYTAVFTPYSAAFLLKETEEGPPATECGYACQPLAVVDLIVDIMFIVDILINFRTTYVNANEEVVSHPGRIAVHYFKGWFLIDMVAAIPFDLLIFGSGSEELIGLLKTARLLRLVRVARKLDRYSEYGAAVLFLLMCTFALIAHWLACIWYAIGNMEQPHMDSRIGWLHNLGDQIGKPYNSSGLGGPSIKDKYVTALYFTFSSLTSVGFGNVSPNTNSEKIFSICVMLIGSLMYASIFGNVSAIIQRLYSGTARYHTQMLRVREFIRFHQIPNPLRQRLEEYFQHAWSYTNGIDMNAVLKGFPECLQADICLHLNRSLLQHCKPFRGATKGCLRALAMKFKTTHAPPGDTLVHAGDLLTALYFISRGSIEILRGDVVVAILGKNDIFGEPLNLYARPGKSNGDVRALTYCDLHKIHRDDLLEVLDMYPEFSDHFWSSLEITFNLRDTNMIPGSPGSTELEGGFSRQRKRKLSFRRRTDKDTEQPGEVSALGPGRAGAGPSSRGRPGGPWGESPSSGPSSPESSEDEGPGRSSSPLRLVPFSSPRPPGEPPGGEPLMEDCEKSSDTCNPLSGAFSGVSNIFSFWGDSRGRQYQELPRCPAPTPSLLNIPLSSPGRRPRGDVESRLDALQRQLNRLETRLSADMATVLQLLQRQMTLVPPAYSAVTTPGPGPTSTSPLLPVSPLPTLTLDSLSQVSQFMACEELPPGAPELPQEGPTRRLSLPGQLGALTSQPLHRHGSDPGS
Sequence of Paired box protein Pax-8 (Q06710 whole entry): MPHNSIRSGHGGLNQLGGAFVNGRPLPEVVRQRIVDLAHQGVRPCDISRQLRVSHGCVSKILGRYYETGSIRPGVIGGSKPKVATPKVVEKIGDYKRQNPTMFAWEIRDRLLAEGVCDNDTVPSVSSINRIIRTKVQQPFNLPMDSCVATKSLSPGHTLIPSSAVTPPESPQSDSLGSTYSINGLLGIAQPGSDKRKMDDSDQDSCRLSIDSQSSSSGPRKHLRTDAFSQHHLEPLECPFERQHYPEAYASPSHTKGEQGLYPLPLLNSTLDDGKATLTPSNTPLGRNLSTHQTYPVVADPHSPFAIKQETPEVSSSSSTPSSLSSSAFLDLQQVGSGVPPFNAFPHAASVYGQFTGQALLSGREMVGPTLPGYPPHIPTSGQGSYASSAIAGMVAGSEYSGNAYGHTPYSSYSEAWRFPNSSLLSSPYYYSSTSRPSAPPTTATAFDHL
Sequence of Galanin receptor type 2 (O43603 whole entry): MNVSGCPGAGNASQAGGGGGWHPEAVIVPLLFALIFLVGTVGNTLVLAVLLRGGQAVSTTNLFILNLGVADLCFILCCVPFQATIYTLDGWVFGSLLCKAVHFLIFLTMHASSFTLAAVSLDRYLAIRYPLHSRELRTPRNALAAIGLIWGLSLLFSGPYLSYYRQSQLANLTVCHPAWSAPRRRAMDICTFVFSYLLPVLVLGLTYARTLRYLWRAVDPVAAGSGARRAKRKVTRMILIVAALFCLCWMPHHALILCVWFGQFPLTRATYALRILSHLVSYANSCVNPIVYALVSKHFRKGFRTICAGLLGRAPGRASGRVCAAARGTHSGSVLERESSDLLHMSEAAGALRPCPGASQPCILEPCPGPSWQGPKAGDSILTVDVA

C[C@H](O)C#Cc1ccc2c(c1)O[C@@H](CN(C)Cc1ccc(-c3ccccc3)cc1)[C@H](C)CN([C@@H](C)CO)S2(=O)=O
IC50 [1]: > 64.6 µM (inactive)
AC50 [2]: 10.3 µM (active)
AC50 [3]: 19.4 µM (active)
AC50 [4]: 27.6 µM (active)
IC50 [5]: > 64.6 µM (inactive)
AC50 [6]: 6.73 µM (active)
AC50 [7]: 42.8 µM (active)
AC50 [8]: 28.3 µM (active)

CC1(C(=O)CSc2nc[nH]n2)CCC(=O)O1 (stereo not given)
IC50 [9]: > 50 µM (not active)

Cc1nc(NC(=O)c2cccc(Cl)c2)sc1C(=O)N1CCCCC1
EC50 [10]: 12.2 µM (active)
EC50 [11]: 14.2 µM (active)
EC50 [12]: 20.1 µM (active)
IC50 [13]: 6.4 µM (active)

CC(C)CNC(=S)NC(=O)c1ccc(Cl)cc1
EC50 [14]: 6.61 µM (active)

O=C1c2ccccc2C(=O)N1Nc1ccccc1
IC50 [15]: > 100 µM (active)

O=C(Oc1ccc(Cl)cc1)c1ccc(COC(=O)c2cnccn2)cc1
EC50 [16]: > 112 µM (not active)
EC50 [17]: 7.27 µM (active)
EC50 [18]: > 100 µM (not active)

CCn1c2ccc(C)cc2c2nc3cc(C(=O)O)ccc3nc21
IC50 [19]: > 42 µM (not active)
IC50 [20]: 191 µM (active)

CC12CC[C@H]3[C@@H](CCC4(O)C[C@H](O)CCC34/C=N/NC(=O)c3ccccc3[N+](=O)[O-])C1(O)CCC2C1=CC(=O)OC1 (stereo not given in full)
CC50 [21]: 12.9 µM (active)
EC50 [22]: 11.2 µM (active)
EC50 [23]: 11.9 µM (active)
CC50 [24]: 32 µM (active)
EC50 [25]: 8.77 µM (active)

CCCCCCc1cccc(NC(=O)[C@H](N)CCP(=O)(O)O)c1
Ki [26]: 4.63 µM (active)

O=C(COC(=O)CCC1CCCC1)Nc1ccc(Cl)cn1
EC50 [27]: > 50 µM (not active)
IC50 [28]: > 100 µM (inactive)

Cc1ccc(C)c(SCc2noc(C(=O)NCC3CCCO3)c2C(=O)O)c1 (stereo not given)
IC50 [29]: 26.4 µM (not active)
IC50 [30]: > 35 µM (not active)
